Patent US20260125357A1, “LACTATE ENHANCING COMPOUNDS AND USES THEREOF” (GLIAPHARM SA, priority 2022, published 2026)

Tests used:
GLUT1-DS transgenic mice = experiment: Rotarod motor function in GLUT1-DS transgenic mice; type: in vivo, mouse; details: single administration 10 mg/kg, 20 min before rotarod
Excerpt: (§1) Heterozygous transgenic mice on 129/SvJ genetic background in which glucose transporter 1 (GLUT1) has been knocked down were used (GLUT1(+/−)) (Wang et al., 2016, Human Molecular Genetics, 15(7)). GLUT1-deficiency syndrome (GLUT1-DS) is a prototypic hypometabolic diseases caused by the mutation of GLUT1 and decreased levels of glucose and lactate in the brain (Tang et al., 2019, Annals of Clinical and Translational Neurology 6(9)). Mating colonies were composed of wild-type female mice and GLUT1-DS male mice, or GLUT1-DS female mice and wild-type male mice. F1 pups were genotyped after ear punching at weaning using PCR to determine genotype. Mice of 2 to 3 months of age were used.
Motor function was measured in wild-type (WT) and GLUT 1-DS transgenic mice in the rotarod after single administration of Veh. or compound (1) or (2) (10 mg/kg) 20 min before rotarod. Rotarod testing consisted in placing the mouse on an accelerating rotating rod (4 to 40 r.p.m.) during a maximum of 300 seconds. 3 consecutive sessions with 15 min apart were performed. Latency for the mouse to fall from the rod was recorded and the maximal latency over the 3 trials was used as a measure of motor function.

C57Bl/6J wild-type mice [1] = experiment: Lactate and glucose biosensors, cerebral extracellular levels in freely moving mice; type: in vivo, mouse; details: per os, doses 10 to 30 mg/kg, 3 hours, AUC ratio vs vehicle
Experimental: (§2) All experiments were carried out in strict accordance with the Swiss Federal Guidelines for Animal Experimentation and were approved by the Cantonal Veterinary Office for Animal Experimentation (Canton of Geneva, Switzerland). Adult male C57Bl/6J wild-type mice weighting 18-28 g (8 to 12 weeks of age) were used (Charles River Laboratories). Animals were housed in groups of 3-5 in polypropylene cages (30×40×15 cm) with wire mesh top in a temperature (22±2° C.) and humidity (55±15%) controlled environment on a 12-hour light cycle (07.00-19.00 h lights on), except after surgeries when animal were housed individually. The samples (Vehicle or compounds of the invention) were administered per os (gavage) in a solution made of water supplemented with 0.4% hydroxypropyl methylcellulose (HPMC) Methocel 4 KM (w/v) and 0.25% Tween-20 (v/v), as previously described (Thackaberry et al., 2010, Toxicol Sci., 117(2):485-92). Concentrations of the compounds tested ranged from 3 to 30 mg/kg.
Cerebral extracellular levels of L-lactate and D-glucose were monitored in vivo using lactate and glucose biosensors (Pinnacle Technology), respectively, according to the manufacturer's instructions. Cannulae were surgically implanted in the medial prefrontal cortices (coordinates: −1.0 mm (to bregma), lateral+/−1.0 mm (to mideline), ventral −1.0 mm (to dura))) of isoflurane-anesthetized mice 5 to 7 days prior experiment. After surgery, mice were monitored closely and received analgesic treatment for at least 4 days. After mice had fully recovered from surgery, compounds of the invention of vehicle were administered per os as previously described and cerebral levels of extracellular lactate and glucose were dynamically recorded for 6 hours using biosensors. Mice were administered vehicle alone first, followed 3 hours later by vehicle or Compounds of the Invention. Concentrations of cerebral extracellular lactate and glucose were calculated from the biosensor electric signals using post-calibration values. […] Area Under the Curve (AUC) of lactate and glucose concentration curves were calculated using Graphad Prism and the ratio of AUC after drug over Vehicle administration was calculated. Extracellular concentrations of lactate and glucose were measured in real time in freely moving animals for 3 hours after administration of Vehicle or compounds (1) to (4) at doses ranging from 10 to 30 mg/kg (FIG. 5).

[2] = tested on: Wild-type (WT) and GLUT1-DS transgenic mice; experiment: Grip strength test in WT and GLUT1-DS transgenic mice; type: in vivo, mouse; details: 10 mg/kg, after rotarod session
Excerpt: as §1
Motor strength was measured on the grip strength test (Bioseb) after rotarod session. Wild-type (WT) and GLUT1-DS transgenic mice were placed with 4 paws on the grid and maximal grip strength was recorded over 2 sessions with 5 minutes apart. Maximal grip strength over the 2 sessions was recorded.

primary astrocytes [3] = experiment: Extracellular medium acidification (SNARF5) assay in astrocytes; type: cell-based; details: Mus musculus, Astrocyte; astrocytes in vitro; compounds 10 nM to 30 μM; read-out: Activity (EC50 class, extracellular medium acidification SNARF5)
Experimental: To assess for the effect of the compounds of the invention, those were tested in primary mouse astrocytes and astrocytes differentiated from human-derived induced pluripotent stem cells (iPSCs). Secretion of lactate was measured indirectly through the acidification of extracellular medium using extracellular pH sensor SNARE-5F-(AND-6)-CAR (SNARF5) as described below.
(§3) Primary cultures of cerebrocortical astrocytes were obtained from 1 to 2-day-old OF1 mouse pups (Charles River Laboratories). Briefly, cortices were isolated and minced in small pieces under a dissecting microscope. The cells were incubated for 30 min at 37° C. in a solution containing 20 U/ml papain, 1 mM L-cysteine and 10 kU/ml DNase I. After dissociation, papain activity was stopped by the addition of fetal calf serum (FCS). Single-cell suspension was then obtained by mechanical dissociation, which consisted in cells trituration in a DMEM D7777 medium supplemented with 44 mm NaHCO3, 10 ml/L antibiotic/antimycotic solution and 10% FCS. The cells were seeded at an average density of ˜10′000 cells/cm^2 on poly-D-lysine coated 96- or 12-well culture plates, depending on their use, and grown in DMEM D7777 medium supplemented with 44 mm NaHCO3, 10 ml/L antibiotic/antimycotic solution and 10% FCS at 37° C. in a humidified atmosphere containing 5% CO2/95% air. Culture medium was renewed twice a week. Cells were stimulated and harvested between DIV14 and DIV17, when confluence and cell growth were optimal.
Secretion of lactate was measured indirectly through the acidification of extracellular medium using extracellular pH sensor SNARF-5F-(AND-6)-CAR (SNARF5). After washing cells twice with stimulation medium (DMEM (D5030, Sigma), 1 mM […], and 5 mM Glucose, pH 7.4) at 37° C., cells were stimulated with compounds at a final concentration ranging from 10 nM to 30 μM in 50 μl per well of stimulation medium supplemented with 10 μM of SNARF5 (Life Technologies Corporation). Each compound was tested in two different plates for duplicates. After 30, 60 and 90 min stimulation, fluorescence was read at exc. (excitation) 480 nm/emm. (emission) 580 nm and at exc 480 nm/emm. 630 nm. The ratio of fluorescence between 630 nm and 580 emission values, which is proportional to extracellular pH, was calculated. In each plate, 8 wells were used for negative controls (DMSO 0.1%) and 8 wells were used for positive controls (CCCP 2 μM in DMSO). Results are shown as % of positive control effect (0% and 100% being activities of the Veh and positive control, respectively).

primary astrocytes [4] = experiment: MTT mitochondrial activity assay in primary astrocytes; type: cell-based, mouse; details: different concentrations, after 1.5 h or 24 h
Experimental: as §3
To monitor mitochondrial activity in astrocytes, which is linked to the metabolic process of glycolysis and production of lactate, astrocytes in 96-well plates were stimulated for 24 h (37° C. 5% CO2/95% air) with the compounds of the invention ranging from 10 nM to 10 μM.
After stimulation, 5 mg/ml thiazol blue tetrazolium bromide (MTT) in D5030 medium complemented with 5 mM D-glucose and 44 mM sodium bicarbonate (pH 7.2) was added to each well, and cells were incubated for 4 h at 37° C. (5% CO2). The medium was then removed and the amount of reduced MTT, i.e formazan, solubilized in DMSO (50 μl/well) was determined using a spectrophotometer (absorbance of 570 nm).
The mitochondrial activity was monitored in MTT colorimetric assay in primary astrocytes treated with Compounds (1), (2), (3), (4) (5), (9) and (10) at different concentrations after 1.5 h (FIG. 2 A, B, D, E, F, C, H, respectively) or 24 h (FIG. 2 H, I, K, L, M, J, N, respectively).

C57Bl/6J wild-type mice [5] = experiment: 18F-FDG PET glucose uptake in the brain; type: in vivo, mouse; details: gavage, 30 mg/kg, vs Vehicle
Experimental: as §2
^18F-FDG PET Glucose uptake in the brain was measured in vivo using 18F-fluorodeoxyglucose (FDG) with positron emission tomography (PET) Scan. Mice were fasted for 12 hours before the scans PET/CT measurements. Compounds of the invention were administered by gavage, followed by an intraperitoneal injection of 5 MBq of ^18F-FDG in 300 μL of saline. […]

EC50 (primary astrocytes [3]) | Structure (SMILES) | rotarod performance (latency to fall) (GLUT1-DS transgenic mice) | extracellular glucose levels in the brain (C57Bl/6J wild-type mice [1]) | extracellular lactate levels in the brain (C57Bl/6J wild-type mice [1]) | muscle strength (grip strength) [2] | mitochondrial activity (MTT colorimetric assay) (primary astrocytes [4]) | glucose uptake in the brain (18F-FDG in the whole brain) (C57Bl/6J wild-type mice [5])
< 1 µM | COc1cc2ccnc(Cc3ccc(N4CCCC4=O)cc3)c2cc1OC [Compound 1, 1-[4-[(6,7-dimethoxy-1-isoquinolyl)methyl]phenyl]pyrrolidin-2-one] | increased rotarod performance | significantly increases extracellular glucose levels | significantly increases extracellular lactate levels | did not lead to any difference on muscle strength | none of the selected compounds had direct effect on mitochondrial activity | increases glucose uptake in the brain
< 1 µM | COc1cc2ccnc(Nc3ccc(S(C)(=O)=O)cc3)c2cc1O [Compound 3, 6-methoxy-1-(4-methylsulfonylanilino)isoquinolin-7-ol] | – | significantly increases extracellular glucose levels | significantly increases extracellular lactate levels | – | none of the selected compounds had direct effect on mitochondrial activity | –
< 1 µM | COc1cc2c(Nc3ccc(S(C)(=O)=O)cc3)nccc2cc1O [Compound 4, 7-methoxy-1-(4-methylsulfonylanilino)isoquinolin-6-ol] | – | significantly increases extracellular glucose levels | significantly increases extracellular lactate levels | – | none of the selected compounds had direct effect on mitochondrial activity | –
